“And” between values parts separate entries of the source, which are not always exact repeats. Equal entries are not always repeated. Where two headings read alike, the source gives them in different places.
Tests used:
[1] = tested on: H37Rv strain of Mycobacterium tuberculosis; assay: microbe, parasite or virus in culture; type: cell-based
cells = assay: LD50 for selectivity index (Table 10); type: cell-based, Mycobacterium tuberculosis; conditions: for SI (Selectivity Index): LD50 : MIC
Excerpt: Table 10 lists MIC and LD50 data for selected compounds. […] Table 11 lists MIC data for purified substituted ethylene diamines in comparison to ethambutol (EMB).

[2] = tested on: monkey kidney cells (Vero); assay: In vitro toxicity, Vero cells; type: cell-based; conditions: Primates
Description: Twenty six compounds (including 37, 59 and 109) were tested in an in vitro model of toxicity using monkey kidney cells (Vero) and human cervical cancer cells (HeLa) using methods well known to those skilled in the art. The data from this toxicity testing and the MIC data were used to calculate a selectivity index (SI), the ratio of IC50:MIC (Table 15). Selectivity Indexes were ranging from 1.76 to 16.67.

M. tuberculosis H37Rv = assay: In vivo efficacy, mice infected i.v. with M. tuberculosis, CFU in spleen and lungs; design: species or system C57BL/6 mice; conditions: for activity in vivo, spleen and lung: 25 mg/kg, 5×10^6 CFU, 4 weeks
wild type of M.tb = assay: MIC, secondary screening, wild type; type: cell-based, Mycobacterium tuberculosis; conditions: Mycobacterium tuberculosis, WT; EMB, RL241, Cmpd#59 as 2HCl salt, Cmpd#109 as 2CF3COOH salt; read-out: MIC
[3] = Mycobacterium tuberculosis, H37RV, read-out: MIC
[4] = concentration at which 50% of the cells are killed
[5] = Mycobacterium tuberculosis, H37RV, Table 10, from uM and MW, read-out: MIC
[6] = Mycobacterium tuberculosis, H37RV, Table 10, read-out: MIC
[7] = Mycobacterium tuberculosis, H37RV, Table 15, read-out: MIC

## CCC(CO)NCCN[C@@H]1C[C@@H]2CC([C@H]1C)C2(C)C (mixture of isomers) [Compound 68]
[1]; [3]
  MIC: 500 µM

## COc1ccc(CCNCCNCC23CC4CC(CC(C4)C2)C3)cc1OC [Compound 4]
[1]
  MIC: 62.5 µM
[1]; [3]
  MIC: 125 µM

## CC(CNCCC(c1ccccc1)c1ccccc1)NCC12CC3CC(CC(C3)C1)C2 (stereo not drawn) [Compound 6]
cells
  SI (Selectivity Index): 2.56
cells; [4]
  LD50: 20 µM
cells; from uM and MW
  LD50: 10.72 µg/mL
[1]; [5]
  MIC: 4.19 µg/mL
[1]; [6]
  MIC: 7.81 µM

## CC1CC(C)CN(CCNCCC(c2ccccc2)c2ccccc2)C1 (stereo not drawn) [Compound 15, 1-{2-[N-(3,3-Diphenylpropyl)]-aminoethyl}-3,5-dimethyl-piperidine]
[1]
  MIC: 250 µM and 500 µM
[1]; [3]
  MIC: > 500 µM

## CC1CCCC(NCCNCC(c2ccccc2)c2ccccc2)C1C (stereo not drawn) [Compound 29, N-(2,2-Diphenylethyl)-N′-(2,3-dimethylcylcohexyl)ethane-1,2-diamine]
[1]
  MIC: 31.25 µM
[1]; [3]
  MIC: 62.5 µM

## CC(C)(C)CC(C)(C)NCCNCC(c1ccccc1)c1ccccc1 [Compound 33, N-(2,2-Diphenylethyl)-N′-(1,1,3,3-tetramethylbutyl)-ethane-1,2-diamine]
[1]
  MIC: 31.25 µM
[1]; [3]
  MIC: 62.5 µM

## c1ccc(C(CNCCNCC23CC4CC(CC(C4)C2)C3)c2ccccc2)cc1 [Compound 34, N-(2,2-Diphenylethyl)-N′-(1-methyladamantyl)ethane-1,2-diamine]
cells
  SI (Selectivity Index): 4.096
cells; [4]
  LD50: 32 µM
cells; from uM and MW
  LD50: 16.256 µg/mL
[1]; [5]
  MIC: 3.97 µg/mL
[1]; [6]
  MIC: 7.81 µM

## CC(CNCC(c1ccccc1)c1ccccc1)NCC1CCC2C[C@@H]1C2(C)C (stereo partly drawn) [Compound 38, N-(−)-cis-(Myrtanyl)-N′-(2,2-diphenylethyl)propyl-1,2-diamine]
[2]
  IC50: 33 µM
[1]; [7]
  MIC: 6.25 µM

## C[C@@H]1C2C[C@@H](C[C@H]1NCCNCC(c1ccccc1)c1ccccc1)C2(C)C [Compound 40, N-(2,2-Diphenylethyl)-N′-(1R,2R,3R,5S)-(−)-isopinocampheylethane-1,2-diamine]
[2]
  IC50: 25 µM
[1]; [7]
  MIC: 15.6 µM

## CC1CCCC(NCCNC[C@@H]2CCC3C[C@@H]2C3(C)C)C1C (stereo partly drawn) [Compound 41, N-(−)-cis-(Myrtanyl)-N′-(2,3-dimethylcyclohexyl)ethane-1,2-diamine]
[2]
  IC50: 19 µM
[1]; [7]
  MIC: 3.13 µM

## C[C@@H]1C2C[C@@H](C[C@H]1NCCNCC1CCC3C[C@@H]1C3(C)C)C2(C)C (stereo partly drawn) [Compound 47, N-(−)-cis-Myrtanyl-N′-(1R, 2R, 3R, 5S)-(−)-isopinocampheylethane-1,2-diamine]
cells
  SI (Selectivity Index): 1.6
cells; [4]
  LD50: 25 µM
cells; from uM and MW
  LD50: 11.3 µg/mL
[1]; [5]
  MIC: 7.06 µg/mL
[1]; [6]
  MIC: 15.6 µM

## C[C@@H]1[C@@H](NCCNC2CCCCCCC2)C[C@H]2C[C@@H]1C2(C)C [Compound 53, N-Cyclooctyl-N′-(1S, 2S, 3S, 5R)-(+)-isopinocampheyl-ethane-1,2-diamine]
[1]; [3]
  MIC: 31.2 µM

## C1CCCC(NCCNCC23CC4CC(CC(C4)C2)C3)CCC1 [Compound 55, N-(Cyclooctyl)-N′-(1-methyladamantyl)ethane-1,2-diamine]
[2]
  IC50: 34 µM
[1]
  MIC: 15.625 µM and 15.6 µM
[1]; [7]
  MIC: 15.6 µM
[1]; [3]
  MIC: 15.6 µM

## CC[C@@H](CO)NCCNC1CCCCCCC1 [Compound 56, N-(Cyclooctyl)-N′-(2S)-[2-(1-hydroxybutyl)]ethane-1,2-diamine]
[1]
  MIC: >500 µM
[1]; [3]
  MIC: 500 µM

## CC1(C)C2CCC(CNCCNC3CCCCCCC3)[C@@H]1C2 (stereo partly drawn) [Compound 57, N-(−)-cis-Myrtanyl-N′-(cyclooctyl)ethane-1,2-diamine]
[2]
  IC50: 22 µM
cells
  SI (Selectivity Index): 1.152
cells; [4]
  LD50: 18 µM
cells; from uM and MW
  LD50: 7.668 µg/mL
[1]; [5]
  MIC: 6.66 µg/mL
[1]; [6]
  MIC: 15.6 µM
[1]; [7]
  MIC: 11.7 µM

## C1CCCC(NCCNC2C3CC4CC(C3)CC2C4)CCC1 (stereo not drawn) [Compound 58, N-(Cyclooctyl)-N′-(2-adamantyl)ethane-1,2-diamine]
[2]
  IC50: 82 µM
[1]; [7]
  MIC: 12.5 µM
M. tuberculosis H37Rv
  activity in vivo, spleen and lung: active in vivo in both spleen and lung

## CC(NCCNC1CCCCCCC1)c1cccc2ccccc12 (stereo not drawn) [Compound 61]
[1]
  MIC: 31.25 µM
[1]; [3]
  MIC: 62.5 µM

## c1ccc(C2CC2NCCNC2CCCCCCC2)cc1 (stereo not drawn) [Compound 63, N-(Cyclooctyl)-N′-trans-(2-phenylcyclopropyl)ethane-1,2-diamine]
[1]
  MIC: 31.25 µM
[1]; [3]
  MIC: 62.5 µM

## c1ccc(C2CC2NCCNC2C3CC4CC(C3)CC2C4)cc1 (stereo not drawn) [Compound 64, N-(2-Adamantyl)-N′- trans-(2-phenylcyclopropyl)ethane-1,2-diamine]
[1]; [3]
  MIC: 31.2 µM

## c1ccc(C2CC2NCCNC23CC4CC(CC(C4)C2)C3)cc1 (stereo not drawn) [Compound 65, N-(1-Adamantyl)-N′- trans-(2-phenylcyclopropyl)ethane-1,2-diamine]
cells
  SI (Selectivity Index): 3.84
cells; [4]
  LD50: 60 µM
cells; from uM and MW
  LD50: 25.8 µg/mL
[1]
  MIC: 31.25 µM
[1]; [5]
  MIC: 6.72 µg/mL
[1]; [6]
  MIC: 15.6 µM
[1]; [3]
  MIC: 15.6 µM

## C[C@@H]1C2C[C@@H](C[C@H]1NCCNCCC(c1ccccc1)c1ccccc1)C2(C)C [Compound 66, N-(3,3-Diphenylpropyl)-N′-(1R, 2R, 3R, 5S)-(−)-isopinocampheylethane-1,2-diamine]
[2]
  IC50: 28 µM
[1]; [7]
  MIC: 15.6 µM

## C[C@@H]1C2C[C@@H](C[C@H]1NCCNC(c1ccccc1)c1ccccc1)C2(C)C [Compound 71, N-(1,1-Diphenylmethyl)-N′-(1R, 2R, 3R, 5S)-(−)-isopinocampheylethane-1,2-diamine]
[1]
  MIC: 31.25 µM
[1]; [3]
  MIC: 62.5 µM

## COc1ccccc1CCNCCNC1C2CC3CC(C2)CC1C3 (stereo not drawn) [Compound 73, N-(2-Adamantyl)-N′-[2-(2-methoxyphenyl)ethyl]ethane-1,2-diamine]
[2]
  IC50: 81 µM
[1]; [7]
  MIC: 12.5 µM
M. tuberculosis H37Rv; 1 mg/kg and 10 mg/kg, 5×10^5 CFU, chemotherapy from day 20
  activity in the spleen compared with EMB: equal to that of EMB at 100 mg/kg

## C=CCN(CCNCCc1ccccc1OC)C1CCCC1 [Compound 76, N-Allyl-N-cyclopentyl-N′-[2-(2-methoxyphenyl)ethyl]ethane-1,2-diamine]
[1]
  MIC: 31.25 µM
[1]; [3]
  MIC: 62.5 µM

## c1ccc2c(c1)CC(NCCNC1C3CC4CC(C3)CC1C4)C2 (stereo not drawn) [Compound 78, N-2-Adamantyl-N′-2,3-dihydro-1H-inden-2-yl-ethane-1,2-diamine]
[2]
  IC50: 130 µM
[1]; [7]
  MIC: 15.6 µM

## C1CCCC(NCCNC2CCCCCCC2)CCC1 [Compound 103, N,N′-Bis(cyclooctyl)ethane-1,2-diamine]
[1]
  MIC: 62.5 µM
[1]; [3]
  MIC: 31.2 µM

## CCOCCCNCCNCC(c1ccccc1)c1ccccc1 [Compound 107]
[1]
  MIC: 250 µM
[1]; [3]
  MIC: 500 µM

## CCC1CCCCN1CCNC/C=C(\C)CCC=C(C)C (stereo not drawn) [Compound 111, N-[2-(N′-Geranyl)aminoethyl]-2-ethylpiperidine]
[2]
  IC50: 45 µM
cells
  SI (Selectivity Index): 5.632
cells; [4]
  LD50: 44 µM
cells; from uM and MW
  LD50: 18.128 µg/mL
[1]
  MIC: 7.813 µM and 7.8 µM
[1]; [5]
  MIC: 3.22 µg/mL
[1]; [6]
  MIC: 7.81 µM
[1]; [7]
  MIC: 7.81 µM
[1]; [3]
  MIC: 7.81 µM
M. tuberculosis H37Rv; 10 mg/kg, B6 mice, 5×10^5 CFU, chemotherapy from day 20
  anti-tuberculosis activity compared with EMB: comparable to that of EMB at 100 mg/kg
M. tuberculosis H37Rv
  activity in vivo, spleen and lung: active in vivo in both spleen and lung

## C=CCN(CCNCCc1ccccc1Cl)C1CCCC1 [Compound 118, N-2-(2-Chlorophenyl)ethyl-N′-allyl-N′-(cyclopentyl)ethane-1,2-diamine]
[1]
  MIC: 62.5 µM
[1]; [3]
  MIC: 31.2 µM

## Fc1cccc(CCNCCNCCc2ccccc2Cl)c1 [Compound 119, N-2-(2-Chlorophenyl)ethyl-N′-[2-(3-fluorophenyl)-ethyl]ethane-1,2-diamine]
[1]
  MIC: 62.5 µM
[1]; [3]
  MIC: 125 µM

## CC(CNC[C@@H]1CCC2C[C@@H]1C2(C)C)NCC1CCC2C[C@@H]1C2(C)C (stereo partly drawn) [Compound 125, N,N′-bis-(−)-cis-Myrtanylpropane-1,2-diamine]
[1]
  MIC: 15.625 µM
[1]; [3]
  MIC: 15.6 µM

## CC(NCCNCC(c1ccccc1)c1ccccc1)C(O)c1ccc(O)c(O)c1 (stereo not drawn) [Compound 134, N-[2-(N′-2,2-Diphenylethyl)-aminoethyl]-(−)-3,4-dihydroxynorephedrine]
[1]
  MIC: 500 µM
[1]; [3]
  MIC: > 500 µM

## COc1ccccc1CCNCCN[C@@H]1C[C@@H]2CC([C@H]1C)C2(C)C [Compound 151, N-[2-(2-Methoxy)phenylethyl]-N′-(1R, 2R, 3R, 5S)-(−)-isopinocampheyl-ethane-1,2-diamine]
cells
  SI (Selectivity Index): 5.248
cells; [4]
  LD50: 41 µM
cells; from uM and MW
  LD50: 18.45 µg/mL
[1]
  MIC: 7.813 µM
[1]; [5]
  MIC: 3.52 µg/mL
[1]; [6]
  MIC: 7.81 µM
[1]; [3]
  MIC: 15.6 µM

## COc1ccc(CCNCC(NCCc2ccc(F)cc2)c2ccccc2)cc1 (stereo not drawn) [Compound 164, N^1-[2-(4-fluorophenyl)ethyl]-N^2-[2-(4-Methoxy)phenylethyl)-1-phenylethane-1,2-diamine]
[1]
  MIC: 125 µM
[1]; [3]
  MIC: 62.5 µM

## CC1(C)CC2CC(C)(CN2CCNC[C@@H]2CCC3C[C@@H]2C3(C)C)C1 [MP 116]
Wild type of M.tb
  MIC: 6.25 µg/mL

## C[C@@H]1C2C[C@@H](C[C@H]1NCCNC[C@@H]1CCC3C[C@@H]1C3(C)C)C2(C)C [MP 117]
Wild type of M.tb
  MIC: 6.25 µg/mL

## C(CNC1C2CC3CC(C2)CC1C3)NC1C2CC3CC(C2)CC1C3 (stereo not drawn) [SQBisAd, Bis(2-Adamantyl)ethylenediamine]
[1]
  MIC (Minimal Inhibitory Concentration) compared with compound 109: equal or better than compound 109

Reference: patent US8202910B2 (Sequella, Inc., priority 2006, dated 2012)
